Measured values taken from PubChem BioAssay (NCI).
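Method: 48-hour compound exposure of cells in 96-well plates, five concentrations, linear interpolation of endpoints. GI50 marks 50% less growth. TGI is the concentration that stops growth completely.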

Assays:
Assay in all cases: inhibition of tumour cell growth, NCI panel, 48 h
[1] = test system: RPMI-8226 leukemia
[2] = test system: MDA-N
[3] = test system: HCT-15 colon
[4] = test system: SF-295 CNS
[5] = test system: M14 melanoma
[6] = test system: NCI-H23 lung
[7] = test system: SK-MEL-5 melanoma
[8] = test system: HCC-2998 colon
[9] = test system: HOP-62 NSCLC
[10] = test system: DU-145 prostate
[11] = test system: U251 CNS

Structure (SMILES)	TGI [1]	TGI [2]	TGI [3]	TGI [4]	TGI [5]	TGI [6]	TGI [7]	TGI [8]	TGI [9]	TGI [10]	TGI [11]	GI50 [2]	GI50 [3]	GI50 [4]	GI50 [5]	GI50 [8]	GI50 [9]	GI50 [10]
CNC(=O)c1[nH]cnc1/N=N/N(C)N	> 100 µM	> 100 µM	> 100 µM	> 100 µM	> 100 µM	> 100 µM	> 100 µM	> 100 µM	> 100 µM	> 100 µM	> 100 µM	–	–	–	–	–	–	–
Cc1nc2c(sc3nc4ccccc4n32)c(=O)[nH]1	> 100 µM	> 100 µM	> 100 µM	> 100 µM	> 100 µM	> 100 µM	> 100 µM	> 100 µM	> 100 µM	> 100 µM	> 100 µM	–	–	–	–	–	–	–
COC(=O)/C=c1/c2ccccc2n2nc3ccccc3c12	> 100 µM	> 100 µM	> 100 µM	> 100 µM	> 100 µM	> 100 µM	> 100 µM	> 100 µM	> 100 µM	> 100 µM	> 100 µM	–	–	–	–	–	–	–
COc1ccc(CCNC(=O)Cc2cc(OC)c(OC)cc2CO)cc1OC	> 100 µM	> 100 µM	> 100 µM	> 100 µM	> 100 µM	> 100 µM	> 100 µM	> 100 µM	> 100 µM	> 100 µM	> 100 µM	–	–	–	–	–	–	–
O=[N+]([O-])c1ccc2nc(/C=C(\O)c3ccc(F)cc3)c(/C=C(\O)c3ccc(F)cc3)nc2c1	> 100 µM	> 100 µM	> 100 µM	57.6 µM	> 100 µM	77.7 µM	> 100 µM	> 100 µM	31.7 µM	> 100 µM	70.5 µM	–	–	–	–	–	–	–
CN(C)Cc1cc(N=Nc2ccccc2)cc(CN(C)C)c1O	> 100 µM	> 100 µM	> 100 µM	> 100 µM	> 100 µM	> 100 µM	> 100 µM	> 100 µM	> 100 µM	> 100 µM	> 100 µM	–	–	–	–	–	–	–
CCN(CC)C(=S)SS(=O)(=O)c1ccc([N+](=O)[O-])cc1	48.8 µM	> 100 µM	> 100 µM	> 100 µM	28.6 µM	> 100 µM	29.2 µM	> 100 µM	> 100 µM	82.4 µM	36.7 µM	30.2 µM	52.7 µM	58.9 µM	14.9 µM	93.7 µM	32.1 µM	27.2 µM
CC(=O)Nc1ccc2c3c(cc(O)c2c1)N(C(=O)CCCCC(=O)Nc1ccc2c4c(cc(O)c2c1)N(C(=O)OC(C)(C)C)CC4CCl)CC3CCl (centres undefined)	> 25.8 µM	3.85 µM	48.2 µM	> 56.8 µM	> 34.1 µM	7.09 µM	3.18 µM	3.79 µM	> 33.2 µM	4.39 µM	10 µM	–	–	–	–	–	–	–
O=[N+]([O-])c1cccnc1NCC1(CO)CC(Cc2ccccc2)C1 (centres undefined)	> 100 µM	> 100 µM	> 100 µM	> 100 µM	–	> 100 µM	> 100 µM	> 100 µM	> 100 µM	> 100 µM	> 100 µM	–	–	–	–	–	–	–
Cc1c(NC(=S)Nc2ccc(Cl)cc2)c(=O)n(-c2ccccc2)n1C	> 100 µM	> 100 µM	> 100 µM	> 100 µM	> 100 µM	> 100 µM	> 100 µM	> 100 µM	> 100 µM	> 100 µM	> 100 µM	–	–	–	–	–	–	–
CC[C@H]1OC([C@H](O)C/C=C\C#C[Si](C)(C)C)C/C=C\C[C@H]1O[Si](C)(C)C(C)(C)C (some centres undefined)	> 100 µM	> 100 µM	> 100 µM	> 100 µM	> 100 µM	> 100 µM	> 100 µM	> 100 µM	> 100 µM	> 100 µM	> 100 µM	–	–	–	–	–	–	–
O=C(CC(C(=O)c1ccoc1)c1ccco1)c1ccco1 (centres undefined)	> 100 µM	> 100 µM	> 100 µM	> 100 µM	> 100 µM	> 100 µM	> 100 µM	> 100 µM	> 100 µM	> 100 µM	> 100 µM	–	–	–	–	–	–	–
COc1cccc(NC(=O)CC(=O)N2N=C(C)C(N=Nc3ccc(S(=O)(=O)c4ccc(N=NC5C(=O)N(C(=O)CC(=O)Nc6cccc(OC)c6)N=C5C)cc4)cc3)C2=O)c1 (centres undefined)	> 100 µM	> 100 µM	> 100 µM	> 100 µM	> 100 µM	> 100 µM	> 100 µM	> 100 µM	> 100 µM	> 100 µM	> 100 µM	–	–	–	–	–	–	–
CN(C)c1ccc(/C=C/C=C(/C#N)c2ccccc2)cc1	> 95.3 µM	5.28 µM	> 100 µM	> 100 µM	> 85.1 µM	97.6 µM	> 100 µM	> 85.3 µM	> 97 µM	> 100 µM	55.5 µM	–	–	–	–	–	–	–
COCc1cc2c(cc1/C=C/[N+](=O)[O-])OCO2	> 100 µM	32.6 µM	36.8 µM	36.3 µM	30.6 µM	44 µM	37.6 µM	32 µM	35.8 µM	34.4 µM	31.6 µM	–	–	–	–	–	–	–
Cc1ccc(Nc2cc(=O)[nH]c(=S)[nH]2)cc1	> 100 µM	> 100 µM	> 100 µM	> 100 µM	> 100 µM	> 100 µM	> 100 µM	> 100 µM	> 100 µM	> 100 µM	> 100 µM	–	–	–	–	–	–	–
COC(=O)c1c(C)cccc1/C=C1\Cc2cc(C)cc(C)c2C1=O	> 100 µM	> 100 µM	> 100 µM	> 100 µM	> 100 µM	> 100 µM	> 100 µM	> 100 µM	37.7 µM	> 100 µM	48.2 µM	–	–	–	–	–	–	–
CCCCOC(=O)C(O)Cc1ccoc1 (centres undefined)	> 100 µM	> 100 µM	> 100 µM	> 100 µM	> 100 µM	> 100 µM	> 100 µM	> 100 µM	> 100 µM	> 100 µM	> 100 µM	–	–	–	–	–	–	–
Clc1ccc(C2NN=C3c4ccccc4OCC32)cc1 (centres undefined)	6.93 µM	2.56 µM	13.5 µM	–	> 45.1 µM	51 µM	20.4 µM	13.5 µM	> 93.5 µM	> 95.4 µM	> 56.8 µM	–	–	–	–	–	–	–
COC(=O)c1csc(-c2nc(CCNC(=O)OC(C)(C)C)sc2Br)n1	> 100 µM	> 100 µM	> 100 µM	> 100 µM	> 100 µM	> 100 µM	> 100 µM	> 100 µM	> 100 µM	> 100 µM	> 100 µM	–	–	–	–	–	–	–
CN(CCc1ccc(N)cc1)[C@H]1CCCC[C@H]1N1CCCC1	> 100 µM	> 100 µM	> 100 µM	> 100 µM	> 100 µM	> 100 µM	> 100 µM	> 100 µM	> 100 µM	> 100 µM	> 100 µM	–	–	–	–	–	–	–
Cc1ccc2c(n1)C(=O)c1ccccc1C2=O	> 95.8 µM	> 59.9 µM	82.9 µM	> 83.3 µM	> 75.5 µM	38.1 µM	19.7 µM	> 92.2 µM	> 85.4 µM	36.4 µM	97.7 µM	–	–	–	–	–	–	–
Cc1cccc2c1NC(=S)[C@@H]1CCCN1C2=O	> 100 µM	> 100 µM	> 100 µM	> 100 µM	> 100 µM	> 100 µM	> 100 µM	> 100 µM	> 100 µM	> 100 µM	> 100 µM	–	–	–	–	–	–	–
O=C(N/N=C\c1ccc2ccccc2c1)Nc1ccc([N+](=O)[O-])cc1	> 100 µM	> 70.6 µM	> 72.6 µM	> 68.9 µM	> 95.8 µM	> 72.3 µM	> 70.4 µM	> 63.3 µM	68.1 µM	> 65 µM	> 100 µM	–	–	–	–	–	–	–
CC1C[C@]2(C)C(=O)N(c3ccccc3)C(=N)[C@@H]2N(C)c2ccccc21 (some centres undefined)	> 100 µM	> 100 µM	> 100 µM	> 100 µM	> 100 µM	> 100 µM	> 100 µM	> 100 µM	> 100 µM	> 100 µM	–	–	–	–	–	–	–	–
Cc1nnc2n1-c1ccccc1C(=S)N1CSCC21 (centres undefined)	> 100 µM	> 100 µM	> 100 µM	> 100 µM	> 100 µM	–	> 100 µM	> 100 µM	> 100 µM	> 100 µM	> 100 µM	–	–	–	–	–	–	–
C1=C\CCCCN2C[C@H]3CCCC/C=C\CCCCN4CC[C@@H]([C@H](CCCCCC/1)C4)[C@H](C3)C2	3.56 µM	3.26 µM	3.27 µM	3.53 µM	–	18.9 µM	3.12 µM	2.01 µM	5 µM	17.2 µM	3.41 µM	–	–	–	–	–	–	–
COc1cc2c(cc1OC)CC(N=[N+]=[N-])c1cc(OC)c(OC)cc1/C=C\2 (centres undefined)	> 100 µM	25.2 µM	> 100 µM	> 100 µM	> 100 µM	–	63.1 µM	> 100 µM	> 100 µM	> 100 µM	> 100 µM	–	–	–	–	–	–	–
S=C1N=C(Cl)C2(NN1)c1ccccc1-c1ccccc12	> 10 µM	> 10 µM	> 10 µM	–	> 10 µM	> 10 µM	> 10 µM	> 10 µM	> 10 µM	> 10 µM	> 10 µM	–	–	–	–	–	–	–
C#C[C@]1(O)CC[C@H]2[C@@H]3CCc4cc(OC(=O)c5cccc6cc7ccccc7nc56)ccc4[C@H]3CC[C@@]21C	> 100 µM	89.3 µM	> 100 µM	–	> 100 µM	> 100 µM	29.5 µM	> 100 µM	> 100 µM	78.9 µM	> 100 µM	–	–	–	–	–	–	–
